Results from patent publication US8299073B2, “P38 MAP kinase inhibitors” (Respivert Ltd., priority 2008, dated 2012).

How the values were obtained:
[1] = system: LPS-induced TNFα release in differentiated U937 cells; assay: LPS-induced TNF alpha release in differentiated U937 cells; assay type: cell-based; details: Homo sapiens; read-out: R-EC50 values d-U937 cells
Description: U937 cells, human monocytic cell line, were differentiated to macrophage-type cells by incubation with phorbol myristate acetate (PMA; 100 ng/ml) for 48 to 72 hours. Where appropriate, cells were pre-incubated with final concentrations of compound for 2 hrs. Cells were then stimulated with 0.1 μg/mL of LPS (from E. coli: O111:B4, Sigma) for 4 hrs, and the supernatant collected for determination of TNFα concentration by sandwich ELISA (Duo-set, R&D systems).

[2] = molecular target: T1, p38 MAPK alpha (MAPK14: Invitrogen) (Homo sapiens, UniProt Q16539); assay: Enzyme inhibition assay (FRET, Z-LYTE), p38 MAPK alpha, via activation of MAPKAP-K2; assay type: biochemical; details: read-out: IC50 values p38α enzyme
T1 construct: purchased Invitrogen

[3] = system: LPS-induced TNFα release in THP-1 cells; assay: LPS-induced TNF alpha release in THP-1 cells; assay type: cell-based; details: Homo sapiens, THP-1; LPS-induced TNFα release; read-out: IC50 values THP-1 cells
Description: THP-1, human monocytic cell line, was also used for this assay. THP-1 cells were stimulated with 1 μg/ml of LPS (from E. coli: O111:B4, Sigma) for 4 hrs, and the supernatant collected for determination of TNFα concentration.
THP-1 cells, a human monocytic cell line, were stimulated with 1 μg/ml of LPS (from E. coli; O111:B4, Sigma) for 4 hr and the supernatant collected for determination of TNFα concentration by sandwich ELISA (Duo-set, R&D systems). The inhibition of TNFα production was calculated at each concentration by comparison with vehicle control.

[4] = molecular target: T2, recombinant, phosphorylated p38 MAPK gamma (MAPK12:Millipore) (Homo sapiens, UniProt P53778); assay: Enzyme inhibition assay (FRET, Z-LYTE), p38 MAPK gamma; assay type: biochemical; details: read-out: IC50 values P38γ enzyme
T2 construct: purchased Millipore
T2 sequence (P53778 1-367): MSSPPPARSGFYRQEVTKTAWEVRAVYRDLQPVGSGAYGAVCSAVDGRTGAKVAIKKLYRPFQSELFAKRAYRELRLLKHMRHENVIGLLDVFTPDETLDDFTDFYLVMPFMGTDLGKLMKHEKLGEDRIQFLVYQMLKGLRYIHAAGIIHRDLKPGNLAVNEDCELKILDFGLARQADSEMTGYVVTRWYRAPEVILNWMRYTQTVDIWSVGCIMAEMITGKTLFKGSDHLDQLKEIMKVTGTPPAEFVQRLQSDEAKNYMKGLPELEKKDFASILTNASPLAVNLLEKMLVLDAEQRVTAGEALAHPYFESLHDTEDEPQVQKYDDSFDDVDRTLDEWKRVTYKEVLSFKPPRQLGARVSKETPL
Description: The enzyme inhibitory activity of compound was determined by fluorescence resonance energy transfer (FRET) using synthetic peptides labelled with both donor and acceptor fluorophores (Z-LYTE, Invitrogen). Briefly, recombinant, phosphorylated p38 MAPK gamma (MAPK12:Millipore) was diluted in HEPES buffer, mixed with compound at desired final concentrations and incubated for two hours at room temperature. The FRET peptide (2 μM) and ATP (100 uM) were next added to the enzyme/compound mixture and incubated for one hour. Development reagent (protease) was added for one hour prior to detection in a fluorescence microplate reader. The site-specific protease only cleaves non-phosphorylated peptide and eliminates the FRET signal. Phosphorylation levels of each reaction were calculated using the ratio of coumarin emission (donor) over fluorescein emission (acceptor) with high ratios indicating high phosphorylation and low ratios, low phosphorylation levels.

[5] = system: Differentiated U937 cells; assay: MTT assay (loss of cell viability); assay type: cell-based, human; details: loss of cell viability, 10 ug/ml
Description: Differentiated U937 cells were pre-incubated with compound for 4 hrs in 5% FCS or 10% FCS for 24 hrs and 72 hr. The supernatant was replaced with 200 ul of new media and 10 μL of MTT stock solution (5 mg/mL) added to each well. After 1 hr incubation, the media were removed, 200 μL of DMSO added to each well and the plates were shaken lightly for 1 hr prior to reading the absorbance at 550 nm.
The percentage loss of cell viability was calculated for each well relative to vehicle (0.5% DMSO)-treatment. Consequently an apparent increase in cell viability for drug treatment relative to vehicle is tabulated as a negative percentage.

[6] = system: ovalbumin-mediated lung function changes (sGaw); assay: Ovalbumin challenge/parainfluenza infection model; assay type: in vivo, Dunkin-Hartley guinea-pigs; details: nebulised, 1.5 mg per day; sensitized animals treated with PIV3 medium
[7] = system: neutrophil and macrophage accumulation into airways; assay: Cigarette smoke model; assay type: in vivo, A/J mice; details: 50 μg/ml (35 μl, bid, in); cigarette smoke exposed mice
Description: A/J mice (males, 5 weeks old) were exposed to cigarette smoke (4% cigarette smoke, diluted with compressed air) for 30 min/day for 11 days using a Tobacco Smoke Inhalation Experiment System for small animals (Model SIS-CS; Sibata Scientific Technology, Tokyo, Japan). Test substances were given intra-nasally (35 μl of solution in 50% DMSO/PBS) and therapeutically twice daily for 3 days after the final cigarette smoke exposure. Twelve hours after the last dosing, animals were anesthetized, the trachea cannulated and bronchoalveolar lavage fluid (BALF) was collected. […] The results are shown in FIG. 3 for activated alveolar macrophages and in FIG. 4 for neutrophils. Data for cell numbers are shown as the mean±SEM. The cigarette smoke model used for this study is reported as a corticosteroid refractory system, ([…]. et al., (2008); J. Pharmacol. Exp.

T1 sequence (Q16539 whole entry): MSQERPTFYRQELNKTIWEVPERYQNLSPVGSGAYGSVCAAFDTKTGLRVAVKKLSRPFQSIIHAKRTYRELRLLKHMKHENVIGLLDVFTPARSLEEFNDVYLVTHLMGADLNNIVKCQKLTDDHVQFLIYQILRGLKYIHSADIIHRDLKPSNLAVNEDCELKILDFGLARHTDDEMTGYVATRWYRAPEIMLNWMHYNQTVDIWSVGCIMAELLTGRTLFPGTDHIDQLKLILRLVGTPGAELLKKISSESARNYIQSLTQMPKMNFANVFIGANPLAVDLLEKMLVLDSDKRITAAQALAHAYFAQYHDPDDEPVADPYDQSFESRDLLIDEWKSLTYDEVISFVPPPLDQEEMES

Compound	EC50 [1]	IC50 [2]	IC50 [3]	IC50 [4]	MTT 4 hr [5]	MTT 24 hr [5]	effect on ovalbumin-mediated lung function changes [6]	inhibition of neutrophil or macrophage accumulation into airways [7]
COCC(=O)Nc1cc(C(C)(C)COc2ccc(NC(=O)Nc3cc(C(C)(C)C)nn3-c3ccc(C)cc3)c3ccccc23)ccn1 [Example 48, N-(4-(1-(4-(3-(3-tert-Butyl-1-p-tolyl-1-pyrazol-5-yl)ureido)naphthalen-1-yloxy)-2-methylpropan-2-yl)pyridin-2-yl)-2-methoxyacetamide]	< 500 nM	< 500 nM	< 500 nM	> 5000 nM	− (− <30%)	− (− <30%)		
COCC(=O)Nc1cc(COc2ccc(NC(=O)Nc3cc(C(C)(C)C)nn3-c3ccc(CO)cc3)c3ccccc23)ccn1 [Example 49, N-(4-((4-(3-(3-tert-Butyl-1-(4-(hydroxymethyl)phenyl)-1H-pyrazol-5-yl)ureido)naphthalen-1-yloxy)methyl)pyridin-2-yl)-2-methoxyacetamide]	< 10 nM	< 10 nM	< 500 nM	< 500 nM	− (− <30%)	+ (+ >30% at 10 ug/ml)		
COCC(=O)Nc1nccc(COc2ccc(NC(=O)Nc3cc(C(C)(C)C)nn3-c3ccc(C)cc3)c3ccccc23)n1 [Example 50, N-(4-((4-(3-(3-tert-Butyl-1-p-tolyl-1H-pyrazol-5-yl)ureido)naphthalen-1-yloxy)methyl)pyrimidin-2-yl)-2-methoxyacetamide]	< 10 nM	< 10 nM	< 500 nM	> 5000 nM	− (− <30%)	− (− <30%)		
CCC(=O)O[C@]1(C(=O)SCF)[C@H](C)C[C@H]2[C@@H]3C[C@H](F)C4=CC(=O)C=C[C@]4(C)[C@@]3(F)[C@@H](O)C[C@@]21C [fluticasone propionate]							inhibited	did not inhibit
